The source of these data is US20250066736A1, “HIGH-THROUGHPUT 3D CELL SPHEROID CULTURE CHIP, PREPARATION PROCESS AND USES THEREOF” (National Taiwan University, priority 2023, published 2025).

The series has as its system hepatocytes. Put plainly: In vitro liver fibrosis/toxicity model: relative cell viability of hepatocytes with CCl4-induced injury. It counts as cell-based, Sprague Dawley rats. To be noted: for relative cell viability: 24 h (day 1). The protocol:
The procedure regarding in vitro liver fibrosis model is as follows. To create an in vitro toxicity model, we used CCl4 as a known hepatotoxic agent capable of inducing severe hepatotoxicity, ultimately leading to liver fibrosis. Initially, a stock solution of CCl4 was prepared by dissolving it in DMSO to a concentration of 20%. Subsequently, hepatocytes were aliquoted into 15-mL centrifuge tubes. These hepatocytes were subjected to a 10-min toxication process with CCl4 (0.05, 0.075, 0.1, 0.15, 0.2%)-containing culture medium (serum-free). Subsequently, hepatocytes were washed three times with PBS with centrifugation at 50×g for 1 min at 4° C. Thereafter, the supernatant was carefully removed, and the final cell pellet was seeded onto 0.1 mg/mL collagen-coated Petri dish at a density of 5×10^5 cells/mL.
The procedure regarding relative cell viability and liver-specific function of in vitro HUVEC-covered hepatocyte spheroids embedded in gel cultures is as follows. To assess relative cell viability, separate media formulations were used for 2D dish and 3D gel cultures. Specifically, 10% MTT-containing medium was used for the 2D dish culture, whereas 10% CCK8-containing medium was used for evaluating the cell viability in 3D hydrogel or spheroids. For MTT analysis, after 4-h incubation, half of the supernatant was removed from each well, and an equivalent volume of DMSO was added. Following an additional 10 min of incubation, absorbance was measured at 570 nm. For CCK8 analysis, after 4 h of incubation, 100 μL of the supernatant was transferred to a 96-well plate, and absorbance was measured at 450 nm. To calculate relative cell viability from days 1 to 14, the absorbance value of hepatocytes (or hepatocyte spheroids) in the control group (only gel without cells) measured on day 1 was used as baseline (blank) to exclude the influence of the gel. The absorbance value of each experimental condition was then divided by the value of the blank to obtain relative cell viability.

As for `ClC(Cl)(Cl)Cl` [CCl4, Carbon tetrachloride], the relative cell viability (CCl4 concentration 0.05%) is reported as 60.53%±3.19%; the relative cell viability (CCl4 concentration 0.075%) is listed as 51.70%±5.99%; the relative cell viability (CCl4 concentration 0.1%) is recorded as 28.06%±2.29%; the relative cell viability (CCl4 concentration 0.15%) is reported as 2.67%±0.25%; the relative cell viability (CCl4 concentration 0.2%) is reported as 2.46%±0.63%. For the same molecule, the “half-maximal inhibitory concentration (IC50) for hepatocytes” value (estimated from viability at 24 h) is on record as 0.075%.
